For this test, the system named is RAW264.7. Kind of test: Inhibition of LPS-stimulated nitric oxide production in […] RAW264.7 cells after 24 hrs by Griess assay. Format: functional, cell-based. The conditions noted are these: Mus musculus; for IC50: RAW264.7, 24 h. On the technique in general: Griess reagent forms a coloured azo dye with nitrite.

The values below come from ChEMBL document CHEMBL4145603, “Iridoids from the Roots of Patrinia scabra and Their Inhibitory Potential on LPS-Induced Nitric Oxide Production” (J Nat Prod, 2018).

Structures are written as SMILES.

For the compound `COc1cc([C@@H](O)[C@@H](COC(=O)CC(C)C)Oc2c(O)cc(/C=C/COC(=O)CC(C)C)cc2OC)cc(OC)c1O`, the inhibition entry is “Dose-dependent effect” and the IC50 (commonly the concentration that gives 50% inhibition) turned out to be 17.8 µM.

Regarding `CC(C)CC(=O)OCC1=CO[C@H](OC(=O)CC(C)C)[C@H]2C1(O)C[C@@H](O)[C@]2(O)COC(=O)CC(C)C` (some centres undefined), the inhibition result was “Dose-dependent effect” and the IC50 is 14.7 µM. In turn, `CC(C)CC(=O)OCC1=CO[C@H](OC(=O)CC(C)C)[C@@H]2[C@@](O)(COC(=O)CC(C)C)[C@H](O)C[C@]12O` came in with a half-inhibitory concentration (IC50) of 26 µM. For the compound `CC(C)CC(=O)OCC1=COC=C2C1=CC(=O)[C@]2(O)COC(=O)CC(C)C`, the inhibition result was “Dose-dependent effect” and the 50% inhibitory concentration (IC50) was found to be 17.1 µM. The compound `CC(C)CC(=O)OCC1=COC=C2C1=CC(=O)[C@]2(O)CCl` returned an IC50 of 27.6 µM. `CC(C)CC(=O)OCC1=CO[C@@H](OC(=O)CC(C)C)[C@H]2C1=C[C@H](O)[C@]2(O)CO` displayed an IC50 above 50 µM.
